Publication PMC7160673, “A Degenerate Peptide Library Approach to Reveal Sequence Determinants of Methyllysine-Driven Protein Interactions” (Frontiers in Cell and Developmental Biology, 2020)

Legend:
Assay type in all cases: binding
[1] = system: CST 9733 (anti-H3K27me3); experiment: Histone peptide microarray, CST 9733; conditions: histone peptide array signal normalized to the highest peptide average per subarray, hits; CST 9733 LOT:14 dilution 1:5,000
Procedure: (§1) Peptide microarrays were fabricated using an Aushon 2470 microarrayer and used as described ([Cornett et al., 2017]) with the following modifications. Protein and antibody hybridization steps were performed in buffer containing 25 mM HEPES pH 7.5, 100 mM NaCl, 0.5% BSA (w/v), and 0.1% NP-40. Slides were washed 3 × 5 min in PBS supplemented with 0.1% Tween-20 between each hybridization step. Antibodies used were primary anti-GST (Sigma #7781, 1:2,000 dilution) and an AlexaFluor 647-labeled secondary antibody (Life Technologies A-21245, 1:5,000 dilution). […] Full lists of peptides queried by array analysis are in Supplementary Table S2.

[2] = system: Active Motif #39161, anti-H3K9me3; experiment: Histone peptide microarray, Active Motif 39161; conditions: Active Motif 39161 (anti-H3K9me3) hits
Procedure: as §1

[3] = system: 53BP1 TTD; experiment: Histone peptide microarray, 53BP1 TTD; conditions: 53BP1 TTD hits, average signal per peptide
Procedure: as §1

[4] = system: Millipore #07-449, anti-H3K27me3; experiment: Histone peptide microarray, Millipore 07-449; conditions: Millipore 07-449 (anti-H3K27me3) hits, average signal per peptide
Procedure: as §1

[5] = system: Abcam #ab8895, anti-H3K4me1; experiment: Histone peptide microarray, Abcam ab8895; conditions: Abcam ab8895 (anti-H3K4me1) hits, average signal per peptide
Procedure: as §1

[6] = system: ABClonal #A2355, anti-H3K4me1; experiment: Histone peptide microarray, ABclonal A2355; conditions: Abclonal A2355 (anti-H3K4me1) hits
Procedure: as §1

Substance | Avg Signal [1] | Avg Signal [2] | Avg Signal [3] | Avg Signal [4] | Avg Signal [5] | Avg Signal [6]
AR(Me2a)pTK(Me3)QTARK(Ac)STGGK(Ac)APRK(Ac)QL-K(Biot)-NH2 [H3.1R2me2aT3pK4me3K9acK14acK18ac] | 0.0005148 | 0.0001961 | 0.09934 | 0.005728 | 0.003812 | –
Ac-SGRGKGGK(Me)GLGKGGAKRHRKVLR-Peg-Biot [Peptide H4K8me1] | – | 0.0007159 | – | – | 0.01379 | 0.02626
AR(Me2a)TK(Me3)QTARKSTGGKAPRKQL-K(Biot)-NH2 [H3.1R2me2aK4me3] | 0.001321 | 0.01254 | 0.09687 | 0.02156 | – | –
Biot-Peg-GKKATQApSQEY-OH [Peptide H2A.XS139p] | – | – | – | 0.0003137 | 0.05956 | 0.02695
ATKAARKSAPATGGVK(Me2)KPHRYRPG-GK(Biotin)-OH [Peptide H3.1K36me2] | – | 0.01273 | – | 0.005826 | 0.1144 | 0.06205
AR(Me2a)TK(Me3)QTARKpSTGGKAPRKQL-K(Biot)-NH2 [H3.1R2me2aK4me3S10p] | 0.01157 | 0.007954 | 0.1482 | 0.02048 | 0.0003692 | –
ARTK(Ac)QTARK(Ac)STGGK(Ac)APRK(Ac)QL-K(Biot)-NH2 [H3.1K4acK9acK14acK18ac] | 0.0003418 | 0.05366 | 0.1399 | – | – | –
PEPAK(Me2)SAPAPKKGSKKAVTKAQKK-Peg-Biot [Peptide H2BK5me2] | 0.0008674 | – | 0.1922 | – | – | –
ARTK(Me3)QTARK(Ac)STGGKAPRKQL-K(Biot)-NH2 [H3.1K4me3K9ac] | 0.008895 | 0.02897 | 0.2378 | 0.05697 | – | –
Ac-APRK(Me3)QLATKAARKSAPSTGGVK(Me3)KPHRY-GG-K(Biot)-NH2 [H3.3K18me3K36me3] | 0.04154 | 0.4275 | 0.1772 | 0.2482 | 0.006536 | –
AR(Me)TK(Me3)QTARKSTGGKAPRKQL-K(Biot)-NH2 [H3.1R2me1K4me3] | 0.002343 | – | 0.08379 | 0.07195 | 0.01284 | –
PEPAKSAPAPKK(Ac)GSK(Ac)K(Ac)AVTK(Ac)AQKK-Peg-Biot [H2BK12acK15acK16acK20ac] | – | 0.009853 | – | – | – | 0.0003507
Ac-GKGGAKRHRKVLRDNIQ-Peg-Biot [H4(11-27)] | 0.0004161 | 0.04504 | 0.128 | – | – | –
ARTK(Me3)QTARK(Ac)STGGK(Ac)APRKQL-K(Biot)-NH2 [H3.1K4me3K9acK14ac] | 0.005042 | 0.01712 | 0.06229 | 0.05366 | – | –
ARTK(Me3)QTARK(Ac)pSTGGKAPRKQL-K(Biot)-NH2 [H3.1K4me3K9acS10p] | 0.004944 | 0.01343 | 0.1299 | 0.007736 | – | –
ARTK(Me3)QTARK(Ac)STGGK(Ac)APRK(Ac)QL-K(Biot)-NH2 [H3.1K4me3K9acK14acK18ac] | 0.009625 | 0.004819 | 0.09733 | 0.03443 | – | –
AR(Me2s)TK(Me3)QTARK(Ac)STGGK(Ac)APRK(Ac)QL-K(Biot)-NH2 [H3.1R2me2sK4me3K9acK14acK18ac] | 0.0007823 | 0.02558 | 0.134 | 0.02279 | – | –
Ac-APRK(Ac)QLATK(Ac)AARK(Ac)pSAPSTGG-Peg-Biot [H3.3K18acK23acK27acS28p] | – | 0.004946 | – | 0.0009622 | – | 0.0001631
Ac-SGRGK(Ac)GGKGLGKGGAKRHRK(Ac)VLR-Peg-Biot [Peptide H4K5acK20ac] | – | 0.0005946 | – | – | – | 0.0007556
ARTK(Me3)QTARKpSTGGKAPRKQL-K(Biot)-NH2 [H3.1K4me3S10p] | 0.002306 | 0.0006195 | 0.00608 | 0.003491 | – | –
Ac-SGRGKGGKGLGK(Ac)GGAKRHRKVLR-Peg-Biot [Peptide H4K12ac] | 0.000354 | 0.01336 | 0.1511 | – | 0.001961 | –
